# ChEMBL document CHEMBL1149714 (2007)
# Columns and labels:
# Format in all cases: functional
# [1] = system: Escherichia coli; test: Antibacterial activity against Escherichia coli NIHJJC2 after 20 hrs by agar dilution method
# [2] = system: Pseudomonas aeruginosa; test: Antibacterial activity against Imipenem resistant Pseudomonas aeruginosa SR-6554 after 20 hrs by agar dilution method
# [3] = system: Haemophilus influenzae; test: Antibacterial activity against beta-lactamase negative ampicillin resistant Haemophilus influenzae SR-11435 after 20 hrs by agar dilution method
# [4] = system: Pseudomonas aeruginosa; test: Antibacterial activity against Pseudomonas aeruginosa SR24 after 20 hrs by agar dilution method
# [5] = system: Moraxella catarrhalis; test: Antibacterial activity against Moraxella catarrhalis ATCC 43617 after 20 hrs by agar dilution method; conditions: ATCC 43617, 20 h
# [6] = system: Streptococcus pneumoniae; test: Antibacterial activity against penicillin resistant Streptococcus pneumoniae SR-16675 after 20 hrs by agar dilution method
# [7] = system: Escherichia coli; test: Antibacterial activity against Toho 2 (ESBL) producing Escherichia coli SR-21003 after 20 hrs by agar dilution method
# [8] = system: Staphylococcus aureus; test: Antibacterial activity against […] Staphylococcus aureus SMITH after 20 hrs by agar dilution method
# [9] = system: Pseudomonas aeruginosa; test: Antibacterial activity against AmpC hyperproducing Pseudomonas aeruginosa SR24-12 after 20 hrs by agar dilution method
# [10] = system: Haemophilus influenzae; test: Antibacterial activity against Haemophilus influenzae ATCC 49766 after 20 hrs by agar dilution method; conditions: ATCC 49766, 20 h
# [11] = system: Pseudomonas aeruginosa; test: Antibacterial activity against Pseudomonas aeruginosa SR-5393 after 20 hrs by agar dilution method
# [12] = system: Enterobacter cloacae; test: Antibacterial activity against Enterobacter cloacae ATCC 13047 after 20 hrs by agar dilution method; conditions: ATCC 13047, 20 h
# [13] = system: Enterobacter cloacae; test: Antibacterial activity against AmpC producing Enterobacter cloacae SR-4321 after 20 hrs by agar dilution method
Compound,MIC [1] [µg/mL],MIC [2] [µg/mL],MIC [3] [µg/mL],MIC [4] [µg/mL],MIC [5] [µg/mL],MIC [6] [µg/mL],MIC [7] [µg/mL],MIC [8] [µg/mL],MIC [9] [µg/mL],MIC [10] [µg/mL],MIC [11] [µg/mL],MIC [12] [µg/mL],MIC [13] [µg/mL]
CO/N=C(\C(=O)N[C@@H]1C(=O)N2C(C(=O)[O-])=C(C[N+]3(C)CCCC3)CS[C@H]12)c1csc(N)n1,0.063,64,0.5,0.5,0.5,2,4,2,32,0.032,4,,
CNCCCn1ccc2c1ccc[n+]2CC1=C(C(=O)[O-])N2C(=O)[C@@H](NC(=O)/C(=N\O[C@@H](C)C(=O)O)c3csc(N)n3)[C@H]2SC1,0.063,16,0.063,0.5,0.125,8,1,2,32,0.032,2,0.25,16
CNCCCn1ccc2c1ccc[n+]2CC1=C(C(=O)[O-])N2C(=O)[C@@H](NC(=O)/C(=N\O[C@@H](C)C(=O)O)c3nc(N)sc3F)[C@H]2SC1,0.031,128,0.25,1,0.5,16,16,2,> 128,0.063,8,1,> 128
CNCCCn1ccc2c1ccc[n+]2CC1=C(C(=O)[O-])N2C(=O)[C@@H](NC(=O)/C(=N\O[C@@H](C)C(=O)O)c3nc(N)sc3Br)[C@H]2SC1,0.5,8,0.125,1,0.016,4,4,1,4,0.063,4,1,4
CNCCCn1ccc2c1ccc[n+]2CC1=C(C(=O)[O-])N2C(=O)[C@@H](NC(=O)/C(=N\O[C@H](C(=O)O)C(C)C)c3nc(N)sc3Cl)[C@H]2SC1,2,16,0.063,2,0.016,4,8,1,8,0.032,8,4,8
CNCCCn1ccc2c1ccc[n+]2CC1=C(C(=O)[O-])N2C(=O)[C@@H](NC(=O)/C(=N\O[C@@H](CO)C(=O)O)c3nc(N)sc3Cl)[C@H]2SC1,0.25,16,0.125,1,0.032,8,2,2,4,0.063,4,0.25,2
C=C(O/N=C(\C(=O)N[C@@H]1C(=O)N2C(C(=O)[O-])=C(C[n+]3cccc4c3ccn4CCCNC)CS[C@H]12)c1nc(N)sc1Cl)C(=O)O,0.25,32,0.063,2,0.016,2,1,0.5,8,0.032,8,0.25,1
CNCCCn1cnc2c1ccc[n+]2CC1=C(C(=O)[O-])N2C(=O)[C@@H](NC(=O)/C(=N\OC(C)(C)C(=O)O)c3csc(N)n3)[C@H]2SC1,0.5,128,,1,,,2,,> 128,,4,4,128
CNCCCn1ccc2c1ccc[n+]2CC1=C(C(=O)[O-])N2C(=O)[C@@H](NC(=O)/C(=N\OC(C)(C)C(=O)O)c3nc(N)sc3Cl)[C@H]2SC1,1,16,0.063,2,0.008,4,8,2,8,0.032,4,2,4
CC[C@H](O/N=C(\C(=O)N[C@@H]1C(=O)N2C(C(=O)[O-])=C(C[n+]3cccc4c3ccn4CCCNC)CS[C@H]12)c1nc(N)sc1Cl)C(=O)O,1,16,0.063,1,0.016,4,4,1,4,0.032,4,1,4
CNCCCn1ccc2c1ccc[n+]2CC1=C(C(=O)[O-])N2C(=O)[C@@H](NC(=O)/C(=N\OC(C)(C)C(=O)O)c3csc(N)n3)[C@H]2SC1,0.25,16,,1,,,2,,32,,2,1,16
CNCCCn1ccc2c1ccc[n+]2CC1=C(C(=O)[O-])N2C(=O)[C@@H](NC(=O)/C(=N\OC3(C(=O)O)CC3)c3nc(N)sc3Cl)[C@H]2SC1,0.5,16,0.032,1,0.008,4,4,1,4,0.016,4,0.5,2
CNCCCn1ccc2c1ccc[n+]2CC1=C(C(=O)[O-])N2C(=O)[C@@H](NC(=O)/C(=N\OC3(C(=O)O)CCC3)c3nc(N)sc3Cl)[C@H]2SC1,1,16,0.063,1,0.016,4,4,1,4,0.032,4,2,4
CNCCCn1ccc2c1ccc[n+]2CC1=C(C(=O)[O-])N2C(=O)[C@@H](NC(=O)/C(=N\O[C@@H](C)C(=O)O)c3nsc(N)n3)[C@H]2SC1,0.031,4,0.25,0.5,0.5,4,8,2,16,0.031,2,0.25,8
CNCCCn1ccc2c1ccc[n+]2CC1=C(C(=O)[O-])N2C(=O)[C@@H](NC(=O)/C(=N\O[C@@H](C)C(=O)O)c3nc(N)sc3C)[C@H]2SC1,2,64,2,1,0.5,8,32,4,8,0.125,4,4,16
